What was measured:
Test in all cases: relative viability (nuclei count vs DMSO), 5 days (fraction); higher = more cells survive
Carfilzomib = compound: CC(C)C[C@H](NC(=O)[C@H](CCc1ccccc1)NC(=O)CN1CCOCC1)C(=O)N[C@@H](Cc1ccccc1)C(=O)N[C@@H](CC(C)C)C(=O)[C@@]1(C)CO1 [Carfilzomib]
In short: (§1)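 In 1536-well plates, lung cancer cell lines rested overnight at 37 °C before five library-drug doses (not always all listed), √10 apart, were pinned onto vehicle-anchored plates. Nuclei were counted with MetaXpress from 4× Hoechst images taken after 5 days without medium change. Viability compares treated-well with vehicle-well nuclei as a median over plates, and plates needed control CV below 25% plus at least one doubling to pass.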

Olaparib = compound: O=C(c1cc(Cc2n[nH]c(=O)c3ccccc23)ccc1F)N1CCN(C(=O)C2CC2)CC1 [Olaparib]
In short: as §1

Crizotinib = compound: C[C@@H](Oc1cc(-c2cnn(C3CCNCC3)c2)cnc1N)c1c(Cl)ccc(F)c1Cl [Crizotinib]
In short: as §1

Olaparib + Alpelisib = compound: O=C(c1cc(Cc2n[nH]c(=O)c3ccccc23)ccc1F)N1CCN(C(=O)C2CC2)CC1 [Olaparib] + Cc1nc(NC(=O)N2CCC[C@H]2C(N)=O)sc1-c1ccnc(C(C)(C)C(F)(F)F)c1 [Alpelisib] (partner 2 µM)
In short: (§2)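 Lung cancer cell lines were seeded in 1536-well plates and dosed by pin tool the next day, with either a single drug or a fixed anchor-drug dose combined with five library-drug doses (not always all listed) spaced in √10 steps. Five days later, one step fixed the cells and stained their nuclei (final 0.05% Triton X-100, 1% formaldehyde, 1 ug/ml Hoechst), and nuclei were counted on 4× images. Relative viability is the nuclei count in treated wells divided by the count in vehicle wells, and each value is the median of duplicate plates.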

Olaparib + Pemetrexed = compound: O=C(c1cc(Cc2n[nH]c(=O)c3ccccc23)ccc1F)N1CCN(C(=O)C2CC2)CC1 [Olaparib] + Nc1nc2[nH]cc(CCc3ccc(C(=O)N[C@@H](CCC(=O)O)C(=O)O)cc3)c2c(=O)[nH]1 [Pemetrexed] (partner 0.2 µM)
In short: as §2

## NCI-H1793
Carfilzomib; 0.003162 µM
  relative viability: 1.03
Carfilzomib; 0.01 µM
  relative viability: 0.827
Carfilzomib; 0.03162 µM
  relative viability: 0.9
Carfilzomib; 0.1 µM
  relative viability: 0.165
Olaparib; 0.08 µM
  relative viability: 0.93
Olaparib; 0.253 µM
  relative viability: 0.856
Olaparib; 2.53 µM
  relative viability: 0.824
Olaparib; 8 µM
  relative viability: 0.776
Olaparib; 8 µM, anchor plate
  relative viability: 0.911
Crizotinib; 0.03162 µM
  relative viability: 0.987
Crizotinib; 1 µM
  relative viability: 1.09
Olaparib + Alpelisib; first compound 0.08 µM
  relative viability: 0.683
Olaparib + Alpelisib; first compound 0.253 µM
  relative viability: 0.664
Olaparib + Alpelisib; first compound 2.53 µM
  relative viability: 0.768
Olaparib + Alpelisib; first compound 8 µM
  relative viability: 0.601
Olaparib + Pemetrexed; first compound 0.08 µM
  relative viability: 0.647
Olaparib + Pemetrexed; first compound 0.253 µM
  relative viability: 0.652
Olaparib + Pemetrexed; first compound 2.53 µM
  relative viability: 0.841
Olaparib + Pemetrexed; first compound 8 µM
  relative viability: 0.79
